Experimental data as given in patent US4281009A, “Hydantoin derivatives” (Nippon Zoki Pharmaceutical Co., Ltd., priority 1978, dated 1981).

Assays:
[1] = Acute toxicity test (LD50, Litchfield-Wilcoxon), mice; conditions: mouse, in vivo, ip, intraperitoneal
Protocol: (§1) Toxicity tests were carried out by intraperitoneal administration of the compound of the present invention to groups each comprising 10 ICR-strain mice and SD-strain rats. LD50 was calculated by the Litchfield-Wilcoxon method based on the number of death 72 hours after the administration.

[2] = Acute toxicity test (LD50, Litchfield-Wilcoxon), rats; conditions: rat, in vivo, ip, intraperitoneal
Protocol: as §1

[3] = system: normal mice and SART stress mice; assay: Analgesic effect, D'Amour-Smith method; type: in vivo, mice (ddY-strain male); conditions: for responders at 100 mg/kg / responders at 160 mg/kg: Mus musculus; for responders at 160 mg/kg: peroral 160 mg/kg; for Analgesic effect: peroral 50 mg/kg
In short: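 ddY male normal mice and mice under 4-day SART stress (n=10/group); black-inked tail root irradiated with infrared rays (up to 15 s cutoff), escape latency recorded. Effect expressed as proportion of mice whose mean latency at 30, 60, 90 and 120 min post-dose was at least 2× pre-dose latency.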

[4] = system: spontaneously hypertensive rats (SHR); assay: Antihypertensive effect in spontaneously hypertensive rats; type: in vivo; conditions: 60 minutes
Protocol: 8. Antihypertensive effect: Groups of rats each comprising 6-9 spontaneously hypertensive rats (SHR) were used. The compounds of the present invention or DPH was given intraperitoneally. The rate of antihypertension 60 minutes after the administration was determined.

dd-strain male mice = assay: Inhibitory effect on Tremorine-induced tremor; type: in vivo; conditions: 100 mg/kg intraperitoneal; tremorine 10 mg/Kg
Protocol: 9. Inhibitory effect on Tremorine-induced tremor:
Groups of mice each comprising 10-40 dd-strain male mice were used. Effect of the compounds of the present invention on tremor caused by tremorine was examined. The compounds of the present invention or DPH was given intraperitoneally. 45 minutes thereafter, 10 mg/Kg of tremorine was given intraperitoneally for inducing the tremor.

[5] = ip, SART stress mice, intraperitoneal 100 mg/kg
[6] = ip, normal mice, intraperitoneal 100 mg/kg
[7] = po, SART stress mice, peroral 100 mg/kg
[8] = po, normal mice, peroral 100 mg/kg

SMILES: COc1ccc(C2(c3ccc(OC)c(Cl)c3)NC(=O)NC2=O)cc1 (stereo not drawn) [Compound 2, 5-(3-chloro-4-methoxyphenyl)-5-(4-methoxyphenyl)hydantoin]
- LD50 at 72 h ([1]; female): 920 mg/kg
- LD50 at 72 h ([1]; male): 1000 mg/kg
- LD50 at 72 h ([2]; female): 1540 mg/kg
- LD50 at 72 h ([2]; male): 1600 mg/kg
- responders at 100 mg/kg [3, 5]: 50%
- responders at 100 mg/kg [3, 6]: 30%
- responders at 100 mg/kg [3, 7]: 30%
- responders at 160 mg/kg ([3]; po, SART stress mice): 60%
- responders at 100 mg/kg [3, 8]: 10%
- responders at 160 mg/kg ([3]; po, normal mice): 30%
- Rate of antihypertension ([4]; 150 mg/Kg intraperitoneal): 22.4%
- Inhibitory effect on Tremorine-induced tremor (dd-strain male mice): 38%

SMILES: O=C1NC(=O)C(c2ccc(O)cc2)(c2ccc(O)cc2)N1 [Compound 4, 5,5-Bis(4-hydroxyphenyl)hydantoin]
- LD50 at 72 h ([1]; female): 980 mg/kg
- LD50 at 72 h ([1]; male): 1060 mg/kg
- LD50 at 72 h ([2]; female): 1320 mg/kg
- LD50 at 72 h ([2]; male): 1370 mg/kg
- responders at 100 mg/kg [3, 5]: 60%
- responders at 100 mg/kg [3, 6]: 40%
- responders at 100 mg/kg [3, 7]: 50%
- responders at 160 mg/kg ([3]; po, SART stress mice): 60%
- responders at 100 mg/kg [3, 8]: 20%
- responders at 160 mg/kg ([3]; po, normal mice): 40%
- Analgesic effect ([3]; SART stress mice): 40%
- Analgesic effect ([3]; normal mice): 10%
- Rate of antihypertension ([4]; 100 mg/Kg intraperitoneal): 21.5%
- Rate of antihypertension ([4]; 150 mg/Kg intraperitoneal): 34.1%
- Rate of antihypertension ([4]; 300 mg/Kg intraperitoneal): 45.7%
- Inhibitory effect on Tremorine-induced tremor (dd-strain male mice): 54%

SMILES: O=C1NC(=O)C(c2cc(O)c(O)c(O)c2)(c2cc(O)c(O)c(O)c2)N1 [Compound 36, 5,5-Bis(3,4,5-trihydroxyphenyl)hydantoin]
- LD50 at 72 h ([1]; female): 780 mg/kg
- LD50 at 72 h ([1]; male): 820 mg/kg
- LD50 at 72 h ([2]; female): 1020 mg/kg
- LD50 at 72 h ([2]; male): 1320 mg/kg
- responders at 100 mg/kg [3, 5]: 60%
- responders at 100 mg/kg [3, 6]: 40%
- responders at 100 mg/kg [3, 7]: 30%
- responders at 160 mg/kg ([3]; po, SART stress mice): 40%
- responders at 100 mg/kg [3, 8]: 20%
- responders at 160 mg/kg ([3]; po, normal mice): 30%
- Rate of antihypertension ([4]; 150 mg/Kg intraperitoneal): 19.8%
